Experimental data reported in article PMC11033320, “Activation of p53 signaling and regression of breast and prostate carcinoma cells by spirooxindole-benzimidazole small molecules” (Frontiers in Pharmacology, 2024).

Key:
[1] = test system: PC-3 cells; test: MTT assay anticancer activity, PC-3; format: cell-based; settings: Homo sapiens, PC-3, 5 µM, mean ± SEM, read-out: growth inhibition percentage of PC-3
Description: MTT method was done as described above.

[2] = test system: T-47D; test: NCI anticancer screening, Breast Cancer T-47D; format: cell-based; settings: Homo sapiens, T47D, read-out: % Growth Inhibition (GI %)
Description: (§1) The compound has been processed according to standard method NCI-60 Human Tumor Cell Lines Screen for organic compound at development therapeutic program (DTP). Requests for access to this national resource can be submitted online at: […]

[3] = test system: NCI-H460; test: NCI anticancer screening, Non-Small Cell Lung Cancer NCI-H460; format: cell-based; settings: Homo sapiens; NCI-H460, 10 μM; read-out: % Growth Inhibition (GI %)
Description: as §1

[4] = test system: SF-539; test: NCI anticancer screening, CNS Cancer SF-539; format: cell-based; settings: Homo sapiens; SF-539, 10 μM; read-out: % Growth Inhibition (GI %)
Description: as §1

[5] = test system: K-562; test: NCI anticancer screening, Leukemia K-562; format: cell-based; settings: Homo sapiens, K562; K-562, 10 μM; read-out: % Growth Inhibition (GI %)
Description: as §1

[6] = test system: SNB-19; test: NCI anticancer screening, CNS Cancer SNB-19; format: cell-based; settings: Homo sapiens; SNB-19, 10 μM; read-out: % Growth Inhibition (GI %)
Description: as §1

[7] = test system: NCI-H322M; test: NCI anticancer screening, Non-Small Cell Lung Cancer NCI-H322M; format: cell-based; settings: Homo sapiens, read-out: % Growth Inhibition (GI %)
Description: as §1

[8] = test system: NCI-H23; test: NCI anticancer screening, Non-Small Cell Lung Cancer NCI-H23; format: cell-based; settings: Homo sapiens; NCI-H23, 10 μM; read-out: % Growth Inhibition (GI %)
Description: as §1

[9] = test system: OVCAR-8; test: NCI anticancer screening, Ovarian Cancer OVCAR-8; format: cell-based; settings: Homo sapiens; OVCAR-8, 10 μM; read-out: % Growth Inhibition (GI %)
Description: as §1

[10] = test system: EKVX; test: NCI anticancer screening, Non-Small Cell Lung Cancer EKVX; format: cell-based; settings: Homo sapiens, read-out: % Growth Inhibition (GI %)
Description: as §1

[11] = test system: DU-145; test: NCI anticancer screening, DU-145; format: cell-based; settings: Homo sapiens; DU-145, 10 μM; read-out: % Growth Inhibition (GI %)
Description: as §1

[12] = test system: KM12; test: NCI anticancer screening, Colon Cancer KM12; format: cell-based; settings: Homo sapiens; KM12, 10 μM; read-out: % Growth Inhibition (GI %)
Description: as §1

[13] = test system: RXF 393; test: NCI anticancer screening, Renal Cancer RXF 393; format: cell-based; settings: Homo sapiens; RXF 393, 10 μM; read-out: % Growth Inhibition (GI %)
Description: as §1

[14] = test system: IGROV1; test: NCI anticancer screening, Ovarian Cancer IGROV1; format: cell-based; settings: Homo sapiens, IGROV-1; IGROV1, 10 μM; read-out: % Growth Inhibition (GI %)
Description: as §1

[15] = test system: M14; test: NCI anticancer screening, Melanoma M14; format: cell-based; settings: Homo sapiens; M14, 10 μM; read-out: % Growth Inhibition (GI %)
Description: as §1

[16] = test system: BT-549; test: NCI anticancer screening, Breast Cancer BT-549; format: cell-based; settings: Homo sapiens; BT-549, 10 μM; read-out: % Growth Inhibition (GI %)
Description: as §1

[17] = test system: UACC-62; test: NCI anticancer screening, Melanoma UACC-62; format: cell-based; settings: Homo sapiens; UACC-62, 10 μM; read-out: % Growth Inhibition (GI %)
Description: as §1

[18] = test system: NCI-H226; test: NCI anticancer screening, Non-Small Cell Lung Cancer NCI-H226; format: cell-based; settings: Homo sapiens; NCI-H226, 10 μM; read-out: % Growth Inhibition (GI %)
Description: as §1

[19] = test system: SF-295; test: NCI anticancer screening, CNS Cancer SF-295; format: cell-based; settings: Homo sapiens; SF-295, 10 μM; read-out: % Growth Inhibition (GI %)
Description: as §1

[20] = test system: OVCAR-4; test: NCI anticancer screening, Ovarian Cancer OVCAR-4; format: cell-based; settings: Homo sapiens; OVCAR-4, 10 μM; read-out: % Growth Inhibition (GI %)
Description: as §1

[21] = test system: SR; test: NCI anticancer screening, Leukemia SR; format: cell-based; settings: Homo sapiens, read-out: % Growth Inhibition (GI %)
Description: as §1

[22] = test system: SK-MEL-28; test: NCI anticancer screening, Melanoma SK-MEL-28; format: cell-based; settings: Homo sapiens; SK-MEL-28, 10 μM; read-out: % Growth Inhibition (GI %)
Description: as §1

[23] = test system: MDA-MB 231 cells; settings: for inhibition: 5 µM
Description: Anticancer effect of the above-mentioned compounds was assayed using three human cancer cell lines. Triple negative breast cancer cell line (MDA-MB 231) and prostate cancer cell line (PC3) were cultured in DMEM (Lonza, USA) supplemented with 10% FBS. All cancer cells (4x10^3 cells/well) were seeded in sterile 96-well plates. After 24h, serial concentrations of the tested compounds were incubated with three cancer cell lines for 72 h at 37 °C in 5% CO2 incubator. […] The half maximal inhibitory concentration (IC50) values were calculated using the Graphpad Instat software.

[24] = test system: LOX IMVI; test: NCI anticancer screening, Melanoma LOX IMVI; format: cell-based; settings: Homo sapiens, read-out: % Growth Inhibition (GI %)
Description: as §1

[25] = test system: RPMI-8226; test: NCI anticancer screening, Leukemia RPMI-8226; format: cell-based; settings: Homo sapiens; RPMI-8226, 10 μM; read-out: % Growth Inhibition (GI %)
Description: as §1

| Structure (SMILES) | inhibition at 5 µM [1] | inhibition at 10 µM [2] | inhibition at 10 µM [3] | inhibition at 10 µM [4] | inhibition at 10 µM [5] | inhibition at 10 µM [6] | inhibition at 10 µM [7] | inhibition at 10 µM [8] | inhibition at 10 µM [9] | inhibition at 10 µM [10] | inhibition at 10 µM [11] | inhibition at 10 µM [12] | inhibition at 10 µM [13] | inhibition at 10 µM [14] | inhibition at 10 µM [15] | inhibition at 10 µM [16] | inhibition at 10 µM [17] | inhibition at 10 µM [18] | inhibition at 10 µM [19] | inhibition at 10 µM [20] | also measured |
| --- | --- | --- | --- | --- | --- | --- | --- | --- | --- | --- | --- | --- | --- | --- | --- | --- | --- | --- | --- | --- | --- |
| CN(C)c1ccc([C@@H]2C3CSCN3[C@]3(C(=O)Nc4ccccc43)[C@H]2C(=O)c2nc3ccccc3[nH]2)cc1 (stereo partly drawn) [Compound 6k, (3S,6′R)-6'-(1H-Benzo [d]imidazole-2-carbonyl)-7'-(4-(dimethylamino)phenyl)-3′,6′,7′,7a′-tetrahydro-1′H-spiro [indoline-3.5′-pyrrolo [1,2-c]thiazol]-2-one] | 41.6 ± 0.729% | 83% | 102% | 99.6% | 92.2% | 91.7% | 99.8% | 94.3% | 105% | 91.4% | 104% | 95.7% | 99.7% | 89.8% | 103% | 108% | 84.4% | 91.4% | 103% | 91.5% | inhibition at 10 µM [21]: 84.3%; inhibition at 10 µM [22]: 96.1%; IC50 [23]: 4 ± 0.249 µM; inhibition [23]: 37.6 ± 2.61%; inhibition at 10 µM [24]: 94.2% |
| O=C(c1nc2ccccc2[nH]1)[C@H]1[C@H](c2ccco2)C2CSCN2[C@]12C(=O)Nc1ccccc12 (stereo partly drawn) [Compound 6n, (3S,6′R)-6'-(1H-Benzo [d]imidazole-2-carbonyl)-7'-(furan-2-yl)-3′,6′,7′,7a′-tetrahydro-1′H-spiro [indoline-3.5′-pyrrolo [1,2-c]thiazol]-2-one] | 52.5 ± 1.46% | 84.8% | 102% | 96.4% | 89.8% | 96.8% | 101% | 92.9% | 101% | 103% | 114% | 102% | 104% | 92.4% | 101% | 110% | 90.6% | 92.2% | 109% | 99.2% | inhibition at 10 µM [25]: 101%; inhibition at 10 µM [21]: 86.8%; inhibition at 10 µM [22]: 107%; IC50 [23]: 6.14 ± 0.246 µM; inhibition [23]: 52.9 ± 2.5%; inhibition at 10 µM [24]: 91.7% |
| O=C(c1nc2ccccc2[nH]1)[C@H]1[C@H](c2cccc(F)c2)C2CSCN2[C@]12C(=O)Nc1ccccc12 (stereo partly drawn) [Compound 6m, (3S,6′R)-6'-(1H-Benzo [d]imidazole-2-carbonyl)-7'-(3-fluorophenyl)-3′,6′,7′,7a′-tetrahydro-1′H-spiro [indoline-3.5′-pyrrolo [1,2-c]thiazol]-2-one] | 60.1 ± 0.521% | 79.8% | 97.3% | 86.7% | 84.4% | 91.9% | 99.8% | 90.7% | 94.9% | 88.2% | 105% | 98.1% | 85.2% | 84.6% | 97% | 99.5% | 80.1% | 92.6% | 96.1% | 87.3% | inhibition at 10 µM [25]: 83.6%; inhibition at 10 µM [21]: 82.8%; inhibition at 10 µM [22]: 102%; IC50 [23]: 4.73 ± 0.224 µM; inhibition [23]: 62.8 ± 3.91%; inhibition at 10 µM [24]: 87.5% |
| O=C(c1nc2ccccc2[nH]1)[C@H]1[C@H](c2ccccc2O)C2CSCN2[C@]12C(=O)Nc1ccccc12 (stereo partly drawn) [Compound 6j, (3S,6′R)-6'-(1H-Benzo [d]imidazole-2-carbonyl)-7'-(2-hydroxyphenyl)-3′,6′,7′,7a′-tetrahydro-1′H-spiro [indoline-3.5′-pyrrolo [1,2-c]thiazol]-2-one] | 40.3 ± 3.44% | 80.9% | 97.4% | 98.5% | 96.4% | 93.7% | 99.8% | 96.5% | 97.7% | 91.6% | 98.7% | 82.5% | 88.2% | 92.1% | 95.1% | 93.6% | 77.3% | 91.3% | 96.3% | 86.5% | inhibition at 10 µM [25]: 104%; inhibition at 10 µM [21]: 94%; inhibition at 10 µM [22]: 99%; IC50 [23]: 4.665 ± 0.009 µM; inhibition [23]: 40.8 ± 1.63%; inhibition at 10 µM [24]: 89.2% |
